According to US20260232643A1, “METHODS OF TREATING SOLID TUMORS WITH MITOGEN ACTIVATED PROTEIN KINASE (MAPK) PATHWAY ALTERATIONS” (Jazz Pharmaceuticals Ireland Limited, priority 2023, published 2026):
Positions count from the first letter of the chain named. Where “and” joins values, the source holds several entries; their conditions need not be identical. Equal entries are not always repeated. Where two headings read alike, the source gives them in different places.

Legend:
[1] = target: BRAF WT (Homo sapiens, UniProt P15056); test: PanQinase flash plate-based kinase assay
BRAF WT, sequence (P15056 whole entry): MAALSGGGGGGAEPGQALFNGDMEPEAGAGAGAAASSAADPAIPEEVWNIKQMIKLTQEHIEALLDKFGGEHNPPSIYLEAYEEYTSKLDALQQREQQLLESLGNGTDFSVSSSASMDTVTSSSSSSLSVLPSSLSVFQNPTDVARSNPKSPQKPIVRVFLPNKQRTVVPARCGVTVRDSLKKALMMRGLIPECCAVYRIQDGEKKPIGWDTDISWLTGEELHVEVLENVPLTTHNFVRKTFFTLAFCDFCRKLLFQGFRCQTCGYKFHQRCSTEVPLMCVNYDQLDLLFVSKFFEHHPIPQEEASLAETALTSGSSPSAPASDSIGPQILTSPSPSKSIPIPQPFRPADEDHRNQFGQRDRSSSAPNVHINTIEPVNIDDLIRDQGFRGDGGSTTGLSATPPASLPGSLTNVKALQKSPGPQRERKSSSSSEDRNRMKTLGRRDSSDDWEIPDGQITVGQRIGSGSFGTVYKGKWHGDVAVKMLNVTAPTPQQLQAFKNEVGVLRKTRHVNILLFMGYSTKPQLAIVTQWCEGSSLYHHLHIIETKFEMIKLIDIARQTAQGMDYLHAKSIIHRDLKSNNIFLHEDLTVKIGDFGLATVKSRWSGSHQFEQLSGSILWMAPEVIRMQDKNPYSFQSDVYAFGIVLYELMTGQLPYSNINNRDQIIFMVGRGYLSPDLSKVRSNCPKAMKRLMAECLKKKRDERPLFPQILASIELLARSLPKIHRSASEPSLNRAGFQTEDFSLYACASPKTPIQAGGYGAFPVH

[2] = target: T1, ARAF WT (Homo sapiens, UniProt P10398); test: PanQinase flash plate-based kinase assay
T1 sequence (P10398 1-606): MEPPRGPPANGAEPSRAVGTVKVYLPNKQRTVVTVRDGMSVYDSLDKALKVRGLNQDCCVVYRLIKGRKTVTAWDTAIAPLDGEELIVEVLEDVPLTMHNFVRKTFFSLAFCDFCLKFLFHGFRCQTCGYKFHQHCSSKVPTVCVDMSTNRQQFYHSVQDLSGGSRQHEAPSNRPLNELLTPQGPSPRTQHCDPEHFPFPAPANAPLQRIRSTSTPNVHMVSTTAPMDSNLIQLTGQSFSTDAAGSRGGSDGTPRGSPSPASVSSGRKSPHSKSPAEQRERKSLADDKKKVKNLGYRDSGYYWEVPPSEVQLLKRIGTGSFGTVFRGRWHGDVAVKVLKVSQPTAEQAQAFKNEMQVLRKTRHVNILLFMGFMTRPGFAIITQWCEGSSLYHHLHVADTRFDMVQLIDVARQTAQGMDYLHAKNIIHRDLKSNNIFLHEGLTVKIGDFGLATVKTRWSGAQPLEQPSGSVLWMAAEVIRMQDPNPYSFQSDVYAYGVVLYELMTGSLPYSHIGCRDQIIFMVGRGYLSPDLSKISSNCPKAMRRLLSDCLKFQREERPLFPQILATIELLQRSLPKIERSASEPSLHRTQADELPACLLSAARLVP

[3] = target: T2, ARAF del 347_348 G387D (Homo sapiens, UniProt P10398, DEL347-348/G387D); test: PanQinase flash plate-based kinase assay
T2 sequence (P10398 with tags, fused parts or gaps DEL347-348/G387D): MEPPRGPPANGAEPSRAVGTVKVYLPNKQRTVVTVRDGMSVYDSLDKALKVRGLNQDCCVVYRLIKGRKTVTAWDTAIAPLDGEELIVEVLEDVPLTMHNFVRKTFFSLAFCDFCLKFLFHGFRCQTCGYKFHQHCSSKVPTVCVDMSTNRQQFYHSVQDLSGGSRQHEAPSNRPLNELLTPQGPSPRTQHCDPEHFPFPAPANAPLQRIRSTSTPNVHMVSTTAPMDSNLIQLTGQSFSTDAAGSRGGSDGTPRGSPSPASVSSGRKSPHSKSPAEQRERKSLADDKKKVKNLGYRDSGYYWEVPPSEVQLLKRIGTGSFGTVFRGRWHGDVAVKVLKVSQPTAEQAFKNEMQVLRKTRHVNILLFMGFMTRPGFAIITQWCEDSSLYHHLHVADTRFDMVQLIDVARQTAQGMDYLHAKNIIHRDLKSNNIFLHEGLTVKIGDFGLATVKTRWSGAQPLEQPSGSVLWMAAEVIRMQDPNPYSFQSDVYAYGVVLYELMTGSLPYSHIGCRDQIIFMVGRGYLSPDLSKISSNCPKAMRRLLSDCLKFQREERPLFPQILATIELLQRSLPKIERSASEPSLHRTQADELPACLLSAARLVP

[4] = target: CRAF WT (Homo sapiens, UniProt P04049, Y340D/Y341D); test: PanQinase flash plate-based kinase assay
CRAF WT, sequence (P04049 307-648 Y340D/Y341D): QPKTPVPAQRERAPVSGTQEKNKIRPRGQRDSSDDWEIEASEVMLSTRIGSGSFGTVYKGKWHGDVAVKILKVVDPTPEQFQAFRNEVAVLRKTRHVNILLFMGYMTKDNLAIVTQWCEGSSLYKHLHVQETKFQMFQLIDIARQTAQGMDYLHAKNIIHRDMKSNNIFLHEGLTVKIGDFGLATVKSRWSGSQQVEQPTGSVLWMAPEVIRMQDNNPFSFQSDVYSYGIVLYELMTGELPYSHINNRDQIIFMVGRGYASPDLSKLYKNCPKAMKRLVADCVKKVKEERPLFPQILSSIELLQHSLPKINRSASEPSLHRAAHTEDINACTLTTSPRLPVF

[5] = target: T3, ARAF del 347_348 (Homo sapiens, UniProt P10398, DEL347-348); test: PanQinase flash plate-based kinase assay
T3 sequence (P10398 with tags, fused parts or gaps DEL347-348): T2 sequence (P10398 with tags, fused parts or gaps DEL347-348/G387D) with D385G

[6] = target: T4, ARAF G377R (Homo sapiens, UniProt P10398, G377R); test: PanQinase flash plate-based kinase assay
T4 sequence (P10398 1-606 G377R): T1 sequence (P10398 1-606) with G377R

[7] = target: BRAF V600E (Homo sapiens, UniProt P15056, V600E); test: PanQinase flash plate-based kinase assay
BRAF V600E, sequence (P15056 whole entry V600E): as the sequence (P15056 whole entry) above, with V600E counted along it

[8] = system: metastatic NRASQ61 mutated melanoma; type: in vivo, human
Procedure: This is a phase 1 study of Compound I in participants with advanced or metastatic solid tumors harboring alterations in the MAPK pathway. The study comprises 2 parts: dose exploration (Part A) and expansion (Part B).
Compound I (i.e., (S)-5-((3-(4-(4-fluorophenyl)-1H-imidazol-2-yl) chroman-6-yl)oxy)-3,4-dihydro-1,8-naphthyridin-2 (1H)-one) is orally administered to participants BID in a capsule formulation with unit dose strengths of 10 mg or 25 mg, taken approximately 12 hours apart in the morning and in the evening. Specifically, in Part A, Compound I is administered as a single dose on Cycle 1 Day 1, with no doses administered on Days 2 and 3 before proceeding with BID dosing on Day 4 and after.
Tumor response to therapy will be assessed by the investigator using RECIST v1.1. Tumor assessments will be made by CT/MRI/PE at Screening, on Day 1 of Cycle 3 (Day 57), and every 2 cycles (56 days) thereafter until Dayl of Cycle 13, after which tumor assessments will be every 3 cycles (84 days) and at the End of Treatment Visit. Tumor assessments will include all known or suspected disease sites. Imaging must include chest, abdomen, and pelvis CT or MRI scans. Imaging will be performed on the abdomen, chest, pelvis, and the site of the primary tumor if it is located elsewhere.
Dosing regimens: To assess the safety and efficacy of Compound I in the cancer treatment, Compound I was orally administered to participants at 20 mg BID (“bis in die”, or “twice a day”), 30 mg BID, 50 mg BID, 50 mg QD (“quaque die”, “once a day”), 75 mg BID, or 100 mg QD for a period of time. Treatment-related adverse events (TRAE, Grade≤2 and Grade ≥3) were monitored and recorded. The efficacy of Compound I in treating cancer was determined by using radiologic tumor assessment as per RECIST v1.1 (e.g., PET-CT or MRI scans).

[9] = system: beagle dogs; settings: 0, 3.75, 7.5, or 15 mg/kg/day once daily via oral gavage
Procedure: (§1) Compound I was evaluated in GLP-compliant 28-day oral toxicity studies in 2 preclinical species, Sprague Dawley rats and beagle dogs. In the rat 28-day study, Compound I was administered at 0, 10, 20, or 45 mg/kg/day once daily via oral gavage. […] In the dog 28-day study, Compound I was administered at 0, 3.75, 7.5, or 15 mg/kg/day once daily via oral gavage.

[10] = system: Sprague Dawley rats; settings: 0, 10, 20, or 45 mg/kg/day once daily via oral gavage
Procedure: as §1

[11] = system: RAS (NRAS and KRAS) and RAF (BRAF Class 2/3) mutation driven colorectal cancer, non-small cell lung cancer, melanoma, and ovarian cancer xenografts; test: Tumor growth inhibition in xenograft mice models; type: in vivo; settings: 10 mg/kg BID, 30 mg/kg BID, 30 mg/kg QD, 100 mg/kg QD, FIGS. 1A-E
Procedure: Vehicle was administered BID as a control.
The effect of Compound I in tumor growth inhibition was evaluated in xenograft mice models carrying pathogenic RAS (NRAS and KRAS) and RAF (BRAF Class 2/3) mutation driven colorectal cancer, non-small cell lung cancer, melanoma, and ovarian cancer.

| IC50 [1] [nM] | IC50 [2] [nM] | IC50 [3] [nM] | IC50 [4] [nM] | IC50 [5] [nM] | IC50 [6] [nM] | IC50 [7] [nM] | Compound | reduction in target lesions ([8]; after 2 months, n=1, metastatic NRASQ61 mutated melanoma, 50 mg QD) [%] | reduction in the target lesion ([8]; after 4 months (confirmation of PR), n=1, metastatic NRASQ61 mutated melanoma, 50 mg QD) [%] | PET avidity (PET/CT) ([8]; n=1, metastatic NRASQ61 mutated melanoma, 50 mg QD, FIG. 3) | tumor response per RECIST v1.1 ([8]; participant (n=1), metastatic NRASQ61 mutated melanoma, 50 mg QD oral) | IC50 ([2]; average IC50 ARAF WT, PanQinase flash plate assay, kinase dead MEK K97M substrate, 0.1-3 μM ATP) | findings in 28-day oral toxicity study [9] | findings in 28-day oral toxicity study [10] | tumor growth inhibition [11] | predicted human Vss [L/kg] | predicted human CL (allometrically scaled) [mL/min/kg] |
| --- | --- | --- | --- | --- | --- | --- | --- | --- | --- | --- | --- | --- | --- | --- | --- | --- | --- |
| 97.2 | 26 | 46.5 | 9.1 | 60.3 | 754 | 193 | Cc1ccc2c(Nc3cccc(Cl)c3F)nccc2c1NC(=O)c1csc2c(N)ncnc12 [Belvarafenib] | – | – | – | – | – | – | – | – | – | – |
| 141 | 63.5 | 67.2 | 9.7 | 154 | 621 | 191 | Cc1ccc(NC(=O)c2ccnc(C(F)(F)F)c2)cc1-c1cc(OCCO)nc(N2CCOCC2)c1 [Naporafenib] | – | – | – | – | – | – | – | – | – | – |

| Compound | IC50 [1] [nM] | IC50 [2] [nM] | IC50 [3] [nM] | IC50 [4] [nM] | IC50 [5] [nM] | IC50 [6] [nM] | IC50 [7] [nM] | reduction in target lesions ([8]; after 2 months, n=1, metastatic NRASQ61 mutated melanoma, 50 mg QD) [%] | reduction in the target lesion ([8]; after 4 months (confirmation of PR), n=1, metastatic NRASQ61 mutated melanoma, 50 mg QD) [%] | PET avidity (PET/CT) ([8]; n=1, metastatic NRASQ61 mutated melanoma, 50 mg QD, FIG. 3) | tumor response per RECIST v1.1 ([8]; participant (n=1), metastatic NRASQ61 mutated melanoma, 50 mg QD oral) | IC50 ([2]; average IC50 ARAF WT, PanQinase flash plate assay, kinase dead MEK K97M substrate, 0.1-3 μM ATP) | findings in 28-day oral toxicity study [9] | findings in 28-day oral toxicity study [10] | tumor growth inhibition [11] | predicted human Vss [L/kg] | predicted human CL (allometrically scaled) [mL/min/kg] |
| --- | --- | --- | --- | --- | --- | --- | --- | --- | --- | --- | --- | --- | --- | --- | --- | --- | --- |
| O=C1CCc2c(Oc3ccc4c(c3)CC(c3ncc(-c5ccc(F)cc5)[nH]3)CO4)ccnc2N1 (stereo not drawn) [Compound I, 5-((3-(4-(4-fluorophenyl)-1H-imidazol-2-yl)chroman-6-yl)oxy)-3,4-dihydro-1,8-naphthyridin-2 (1H)-one] | 40.6 | – | 20.4 | 2.3 | 68.3 | 142 | 40.2 | 61 | 69 | significant resolution of PET avidity | partial response (PR) | 15.7 nM and 11.4 nM | No mortality, and no clinical signs, changes in body weight or food consumption, ophthalmology, ECG, clinical pathology, macroscopic or microscopic findings of toxicological relevance were noted | No mortality, and no clinical signs, changes in body weight or food consumption, ophthalmology, clinical pathology or macroscopic findings of toxicological relevance were noted | dose-dependent tumor growth inhibition effect | 0.77 | 1.2 |
